Source: US20100190688A1, “Tetrapeptide analogs” (priority 2004, published 2010)

Assays:
BIR3 domain of rat XIAP = BIR3 domain of rat XIAP (Rattus norvegicus, UniProt Q9R0I6); assay: Fluorescence polarization assay, binding to BIR3 from rat XIAP
Protocol: In fluorescence polarization assays a fluorescent probe is used. The binding affinity of compounds to BIR3 is measured by competitive displacement of a fluorescent probe using fluorescence polarization anisotropy. […] In other embodiments, the probe used is 6-(6-Hydroxy-3-oxo-3H-xanthen-9-yl)-N-(5-(2-methylamino-propionylamino)-6-oxo-6-[4-(1,2,3,4-tetrahydro-naphthalen-1-ylcarbamoyl)-thiazolidin-3-yl]-hexyl)-isophthalamic acid.
The binding affinity of compounds provided herein for rat BIR3 was measured by competitive displacement of a fluorescent probe using fluorescence polarization anisotropy. […] Control conditions were set up on each plate and include free probe 1 alone (5 nM), fully bound probe (5 μM BIR3+5 nM probe 1) and binding buffer blank. The-EC50 of binding was computed from a 4-parameter fit of the measured anisotropies using the SoftMax Pro 4.6 software package (Molecular Dynamics, Sunnyvale, Calif.).
Alternatively, probe 1 was substituted with probe 2: 6-(6-Hydroxy-3-oxo-3H-xanthen-9-yl)-N-{5-(2-methylamino-propionylamino)-6-oxo-6-[4-(1,2,3,4-tetrahydro-naphthalen-1-ylcarbamoyl)-thiazolidin-3-yl]-hexyl}-isophthalamic acid, for rat BIR3 and the concentrations of assay components changed. […] Controls were adjusted accordingly.

[1] = target: T1, BIR3-mediated Caspase-9 inhibition (UniProt Q9R0I6); assay: Caspase-9 rescue assay (relief of BIR3-mediated Caspase-9 inhibition); type: biochemical, human Caspase-9; Rat or Chicken BIR3; conditions: average EC50, substrate Ac-LEHD-amc, pH 6.5
T1 construct: Nothing is printed for this assay
Protocol: Additionally the compounds and compositions can be evaluated for their ability to achieve relief of BIR3-mediated Caspase-9 inhibition by measuring Caspase-9 reactivation. The fluorogenic substrate Ac-LEHD-7-amido-4-methylcoumarin is used in these methods. EC50 values of tested BIR3 inhibitors or Caspase-9 rescuers is calculated from the percentage of Caspase-9 reactivation in the mixtures containing serially diluted concentrations of tested compound. Typically, 10-point curves are generated for such EC50 determination.
Relief of BIR3-mediated Caspase-9 inhibition by BIR3 inhibitors was assayed by measuring Caspase-9 reactivation using the fluorogenic substrate Ac-LEHD-7-amido-4-methylcoumarin. A truncated form of human Caspase-9 that lacks the N-terminal Caspase recruitment domain (EPro-Caspase-9 or p35/p12) was used in the assay. This form of the enzyme has the full catalytic activity and the same substrate specificity as the full-length protein in the Apaf-1/Cytochrome C/dATP/Caspase-9 reconstituted system. Rat or Chicken BIR3 was used in this assay. […] This mixture was incubated for 40 min to allow equilibration at 25° C., and the assay progression was subsequently followed by monitoring the formation of fluorescent 7-amido-4-methylcoumarin over time at 460 nm using an excitation wavelength of 360 nm. […] EC50 values of tested BIR3 inhibitors or Caspase-9 rescuers were calculated from the percentage of Caspase-9 reactivation in the mixtures containing serially diluted concentrations of tested compound.

Sequence of BIR3 domain of rat XIAP (Q9R0I6 241-355): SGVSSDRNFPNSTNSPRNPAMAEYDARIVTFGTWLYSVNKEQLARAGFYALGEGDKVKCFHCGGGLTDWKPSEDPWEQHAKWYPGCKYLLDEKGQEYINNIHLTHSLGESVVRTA

SMILES | EC50 (BIR3 domain of rat XIAP) | EC50 [1]
CNC(C)C(=O)NC(C(=O)NC(CC(=O)OCc1ccccc1)C(=O)NC1CCCc2ccccc21)C(C)C (stereo not drawn) [3-[3-Methyl-2-(2-methylamino-propionylamino)-butyrylamino]-N-(1,2,3,4-tetrahydro-naphthalen-1-yl)-succinamic acid benzyl ester] | < 1000 nM | 1000 to 10000 nM
CNC(C)C(=O)NC(C(=O)N1CS(=O)(=O)CC1C(=O)NC1CCCc2ccccc21)C(C)C (stereo not drawn) [3-[3-Methyl-2-(2-methylamino-propionylamino)-butyryl]-1,1-dioxo-1l6-thiazolidine-4-carboxylic acid (1,2,3,4-tetrahydro-naphthalen-1-yl)-amide] | < 1000 nM | < 1000 nM
CNC(C)C(=O)NC(C(=O)NCC(=O)NC1CCCc2ccccc21)C(C)C (stereo not drawn) [3-Methyl-2-(2-methylamino-propionylamino)-N-[(1,2,3,4-tetrahydro-naphthalen-1-ylcarbamoyl)-methyl]-butyramide] | 1000 to 10000 nM | 1000 to 10000 nM
CNC(C)C(=O)NC(C(=O)N1CSC(C)(C)C1C(=O)NC1CCCc2ccccc21)C(C)C (stereo not drawn) [5,5-Dimethyl-3-[3-methyl-2-(2-methylamino-propionylamino)-butyryl]-thiazolidine-4-carboxylic acid (1,2,3,4-tetrahydro-naphthalen-1-yl)-amide] | < 1000 nM | < 1000 nM
CC(NCC1CC1)C(=O)NC(C(=O)N1CCCC1C(=O)NC1CCCc2ccccc21)C(C)(C)C (stereo not drawn) [1-{2-[2-(Cyclopropylmethyl-amino)-propionylamino]-3,3-dimethyl-butyryl}-pyrrolidine-2-carboxylic acid (1,2,3,4-tetrahydro-naphthalen-1-yl)-amide] | < 1000 nM | 1000 to 10000 nM
CNC(C)C(=O)NC(C(=O)N1CSCC1C(=O)NC1CCCc2ccccc21)C(C)C (stereo not drawn) [3-[3-Methyl-2-(2-methylamino-propionylamino)-butyryl]-thiazolidine-4-carboxylic acid (1,2,3,4-tetrahydro-naphthalen-1-yl)-amide] | < 1000 nM | < 1000 nM
CNC(C)C(=O)NC(C(=O)NC(C(=O)NC1CCCc2ccccc21)c1ccccc1)C(C)C (stereo not drawn) [3-Methyl-2-(2-methylamino-propionylamino)-N-[phenyl-(1,2,3,4-tetrahydro-naphthalen-1-ylcarbamoyl)-methyl]-butyramide] | < 1000 nM | < 1000 nM
CCCCC(NC(=O)C(NC(=O)C(C)NC)C(C)C)C(=O)NC1CCCc2ccccc21 (stereo not drawn) [2-[3-Methyl-2-(2-methylamino-propionylamino)-butyrylamino]-hexanoic acid (1,2,3,4-tetrahydro-naphthalen-1-yl)-amide] | < 1000 nM | 1000 to 10000 nM

More lines, now with the values ahead:

EC50 (BIR3 domain of rat XIAP) | EC50 [1] | SMILES
< 1000 nM | 1000 to 10000 nM | CNC(C)C(=O)NC(C(=O)N1CCCC1C(=O)NN(C)c1ccccc1)C(C)(C)C (stereo not drawn) [N-{2,2-Dimethyl-1-[2-(N′-methyl-N′-phenyl-hydrazinocarbonyl)-pyrrolidine-1-carbonyl]-propyl}-2-methylamino-propionamide]
< 1000 nM | < 1000 nM | CCCCN(CCCC)CCCCC(NC(=O)C(NC(=O)C(C)NC)C(C)C)C(=O)NC1CCCc2ccccc21 (stereo not drawn) [6-Dibutylamino-2-[3-methyl-2-(2-methylamino-propionylamino)-butyrylamino]-hexanoic acid (1,2,3,4-tetrahydro-naphthalen-1-yl)-amide]
< 1000 nM | < 1000 nM | CNC(C)C(=O)NC(C(=O)NC(CCCCNS(C)(=O)=O)C(=O)NC1CCCc2ccccc21)C(C)C (stereo not drawn) [6-Methanesulfonylamino-2-[3-methyl-2-(2-methylamino-propionylamino)-butyrylamino]-hexanoic acid (1,2,3,4-tetrahydro-naphthalen-1-yl)-amide]
< 1000 nM | 1000 to 10000 nM | CNC(C)C(=O)NC1CCC(=O)N2CCC(C(=O)NC3CCCc4ccccc43)N2C1=O (stereo not drawn) [8-(2-Methylamino-propionylamino)-5,9-dioxo-hexahydro-pyrazolo[1,2-a][1,2]diazepine-1-carboxylic acid (1,2,3,4-tetrahydro-naphthalen-1-yl)-amide]
